In US20210379070A1, “MALONATE SALT OF VARLITINIB” (Aslan Pharmaceuticals PTE LTD, priority 2018, published 2021):
Entries after “also recorded” stand apart in the source; their conditions may differ.

Columns and labels:
Assay type in all cases: physicochemical
[1] = Thermodynamic solubility (slurry in media of pH 1, 4.5 and 6.8, ca. 48 hours, HPLC; solids by XRPD); settings: for Solid form by XRPD after thermodynamic solubility slurry: pH 1, 4.5, 6.8 media
Protocol: Slurries of each potential salt were created in media of pH 1; 4.5 and 6.8 and shaken for ca. 48 hours. The resulting solution was then analysed by HPLC and the concentration of material dissolved calculated. Remaining solids were analysed by XRPD to determine if any changes had occurred on slurrying.

[2] = Aqueous solubility (slurry in deionised water, 4 and 24 hours, room temperature, HPLC; solids by XRPD); settings: for Solid form by XRPD after aqueous solubility slurry: 4 and 24 hours; for Aqueous solubility: room temperature
Protocol: Slurries of each potential salt were created in deionised water and agitated for 4 and 24 hours at room temperature. After both 4 and 24 hours, the resulting solutions were analysed by HPLC and the concentration of material dissolved calculated. Remaining solids were analysed by XRPD to determine if any changes had occurred on slurrying.

[3] = Stability (storage) testing, 1 week, XRPD; settings: for Storage testing (solid form by XRPD): ambient light, 40° C./75% RH and 80° C., 1 week
Protocol: Each potential salt was exposed to environments of 40° C./75% RH, elevated temperature (80° C.) and ambient light (ca. 22° C. in a closed vial), for 1 week to determine stability. Resulting solids were analysed by XRPD to establish if any changes had occurred.

[4] = Salt disproportionation studies (slurry in water, XRPD at 1, 24 & 48 hours); settings: room temperature, 1, 24 & 48 hours
Protocol: Salt Disproportionation Studies
Each potential salt was slurried in water at room temperature (ca. 22° C.), with the excess solid taken at 1, 24 & 48 hours and analysed by XRPD. The pH of the supernatant was also monitored.

[5] = Hydration studies (slurry in acetone:water 3, 5 and 10% water, ca. 48 hours, XRPD)
Protocol: Slurries of each potential salt were created in acetone:water mixtures (3, 5 and 10% water) and shaken for ca. 48 hours. The resulting solid was then analysed by XRPD to determine if any changes had occurred on slurrying.

[6] = Dynamic Vapour Sorption (DVS); settings: for Solid form by XRPD post DVS: after exposure to varying % RH; for DVS water uptake: between 20-70% RH
Protocol: Dynamic Vapour Sorption (DVS)
Approximately 10 mg of sample was placed into a mesh vapour sorption balance pan and loaded into a DVS-1 dynamic vapour sorption balance by Surface Measurement Systems. The sample was subjected to a ramping profile from 20-90% relative humidity (RH) at 10% increments maintaining the sample at each step until a stable weight had been achieved (99.5% step completion). After completion of the sorption cycle, the sample was dried using the same procedure, but all the way down to 0% RH and finally taken back to the starting point of 20% RH. The weight change during the sorption/desorption cycles were plotted, allowing for the hygroscopic nature of the sample to be determined.

[7] = Thermal analysis (TG/DTA, DSC): onset of degradation; settings: TG/DTA (TGA)
Protocol: Thermogravimetric Analysis (TGA)
Approximately, 5 mg of material was accurately weighed into an open aluminium pan and loaded into a simultaneous thermogravimetric/differential thermal analyser (TG/DTA) and held at room temperature. The sample was then heated at a rate of 10° C./min from 25° C. to […] the change in sample weight was recorded along with any differential thermal events (DTA). Nitrogen was used as the purge gas, at a flow rate of 100 cm^3/min.
Differential Scanning calorimetry (DSC)
Approximately, 5 mg of material was weighed into an aluminium DSC pan and sealed non-hermetically with a pierced aluminium lid. The sample pan was then loaded into a Seiko DSC6200 (equipped with a cooler). The sample and reference were heated to ca. 220° C. at a scan rate of 10° C./min and the resulting heat flow response monitored.

## C[C@@H]1COC(Nc2ccc3ncnc(Nc4ccc(OCc5nccs5)c(Cl)c4)c3c2)=N1.O=C(O)/C=C\C(=O)O [maleate salt]
[1]
  Solid form by XRPD after thermodynamic solubility slurry: A change in solid form was observed by XRPD from pH1 and pH4.5
[1]; pH1, ca. 48 hours
  Thermodynamic solubility: 1213.8 µg/mL
[1]; pH 4.5, ca. 48 hours
  Thermodynamic solubility: 3.6 µg/mL
[1]; pH 6.8, ca. 48 hours
  Thermodynamic solubility: < 0.445 µg/mL
[2]
  Solid form by XRPD after aqueous solubility slurry: remained unchanged after slurrying, with a potential increase in amorphous content
[2]; 4 hours
  Aqueous solubility: 257 µg/mL
[2]; 24 hours
  Aqueous solubility: 408.9 µg/mL
[3]
  Storage testing (solid form by XRPD): remain unchanged
[4]
  Salt disproportionation on slurrying in water: no change in form of the maleate salt on slurrying in water at 1 hr and 24 hrs. After 48 hrs the material was observed to be predominantly amorphous
[5]
  Hydration study (solid form after slurrying): remained unchanged after slurrying, indicating a low hydration risk
[6]
  Solid form by XRPD post DVS: remain unchanged
  DVS water uptake: 1.95%
  DVS water uptake overall: 2.84%
[7]
  Onset of degradation: ca. 150 °C

## C[C@@H]1COC(Nc2ccc3ncnc(Nc4ccc(OCc5nccs5)c(Cl)c4)c3c2)=N1.O=C(O)CC(=O)O [malonate salt]
[1]
  Solid form by XRPD after thermodynamic solubility slurry: A change in solid form was observed by XRPD from pH1 and pH4.5
[1]; pH1, ca. 48 hours
  Thermodynamic solubility: 768.7 µg/mL
[1]; pH 4.5, ca. 48 hours
  Thermodynamic solubility: 2.8 µg/mL
[1]; pH 6.8, ca. 48 hours
  Thermodynamic solubility: 2 µg/mL
[2]
  Solid form by XRPD after aqueous solubility slurry: remain unchanged after slurrying
[2]; 4 hours
  Aqueous solubility: 494.7 µg/mL
[2]; 24 hours
  Aqueous solubility: 603.6 µg/mL
[3]
  Storage testing (solid form by XRPD): remained unchanged
[3]; conclusion over all tests employed
  Overall stability in the secondary screen tests: good stability throughout the tests employed
[4]
  Salt disproportionation on slurrying in water: no form change of the malonate salt on slurrying in water; also recorded: No disproportionation or hydration observed
[5]
  Hydration study (solid form after slurrying): remain unchanged after slurrying, indicating a low hydration risk; also recorded: No disproportionation or hydration observed
[6]; DVS
  Hygroscopicity: non-hygroscopic
[6]
  Solid form by XRPD post DVS: No change to the solid form; also recorded: no change in PXRD post DVS
  DVS water uptake: 0.14%
  DVS water uptake overall: 0.35%

## C[C@@H]1COC(Nc2ccc3ncnc(Nc4ccc(OCc5nccs5)c(Cl)c4)c3c2)=N1 [varlitinib, (R)—N4-[3-Chloro-4-(thiazol-2-ylmethoxy)-phenyl]-N6-(4-methyl-4,5,-dihydro-oxazol-2-yl)-quinazoline-4,6-diamine]
[7]
  Onset of degradation: ca. 230 °C
